Measured values reported in US11214624B2, “Method to prevent cancer metastasis and inhibit inflammation by inhibition of p68 interaction with calmodulin” (Proda Biotech LLC, priority 2012, dated 2022).
Entries after “also recorded” stand apart in the source; their conditions may differ. No end group written: not given here. TAT = TAT cell-permeable sequence

Tests used:
[1] = system: SW480 cells; test: Boyden chamber cell migration assay, SW480; assay type: cell-based
Description: (§1) Boyden chamber assay: QCM™ 24-Well Fluorimetric Cell Migration Assay kit was used to measure the migration of SW480 cells. The test cells were first treated under the different conditions in regular cell culture plates. The treated cells were re-suspended into optimum medium (without serum) and seeded into the inner chamber of the migration assay kit. The L-15 culture medium with 10% FBS was added to the outer chambers. After overnight incubation, medium in the inner chamber was removed and the cells attached to the outer bottom side were detached using the cell detachment buffer (included in the kit). The detached cells were then lysed using the cell lysis buffer (included in the kit). The amounts of the migrated cells were determined by measuring the fluorescence using λex=485 nm and λem=535 nm. The migration of the control cells with p68 knockdown was defined as 1.

[2] = system: 4T1 cells; test: 4T1 cell migration (Boyden chamber and scratch-wound assays); assay type: cell-based, mouse
Description: as §1, with “Scratch-wound treatments: A scratch or multiple scratches using pipette tips were introduced into a 6 well cell culture plate. The cells were further cultured under serum starvation for 30 minutes, and were subsequently cultured for an additional indicated time. The scratch-treated cells were either directly visualized by microscopes or the cells were fixed and subsequently examined by immunostaining. Alternatively, the cells were collected and lysized. The prepared cellular extracts were then used for other analyses. Boyden” for “Boyden”, “1. […]” for “1.”

[3] = system: E-cadherin and vimentin; test: PDGF stimulated EMT, cellular levels of EMT markers; assay type: cell-based
Source text: We also examined whether the peptides would abolish PDGF stimulated EMT by analyzing the cellular levels of EMT markers, E-cadherin and vimentin. […] The effect of the PepIQ peptide on cancer metastasis was confirmed by an additional treatment using the PepIQ and a control peptide with a scrambled sequence (PepScram) (FIG. 6, Table 2, Table 4).

[4] = system: SW620 xenograft; test: Metastasis inhibition of SW620 xenograft (human CK-18 RT-PCR of spleen extracts); assay type: in vivo, nude mice; details: for Effect on SW620 metastasis: peptide 2 mg/kg i.p. daily for two weeks
Description: (§2) Metastasis inhibition of SW620 xenograft and orthotopic 4T1 tumors: All animal experiments were carried out in accordance with the guidelines of IACUC of Georgia State University. Nude mice or Balb/c mice (6 to 7 weeks old, Harlan Laboratory) were subcutaneously or orthotopically injected with 5×10^6 SW620 or 2×10^6 4T1 cells. Peptides at appropriate doses were administered to the tumor bearing mice by intraperitoneal (i.p.) injection at appropriate time intervals. Tumor formation and volumes were assessed every 2 days. Tumor volumes were measured by two perpendicular diameters of the tumors over a 4-week time course with the formula 4p/3×(width/2)^2×(length/2). The tumors and organs were collected and weighed at the end of the experiments. Tissue sections were prepared from harvested tumors and organs. Tissue sections were analyzed by either H&E or immune staining. For metastasis analyses of SW620 tumors, tissue extracts were prepared from spleens, total RNAs were extracted from the tissue extracts. RT-PCRs were performed with the isolated RNAs. For metastasis of 4T-1 cells, lung and liver were inspected.
The peptides were used to treat a nude mice xenograft of SW620 cells at dose of 2 mg/kg (i.p. daily dose for two weeks). SW620 cells were used because they contain high p68 Y593 phosphorylation (Carter, C L, et al. Oncogene 29:5427-5436 (2010); Yang, L, et al. Mol Cancer Res 3:355-363 (2005)). It is well established that the xenograft of SW620 will metastasize to lymph nodes, and the metastasis can be analyzed by examination of SW620 cells in the spleen (Liu, K, et al. J Immunol 171:4164-4174 (2003)).

[5] = system: Mouse breast cancer 4T1 cells; test: Orthotopic 4T1 tumor metastasis model; assay type: in vivo, Balb/c mouse
Description: as §2
The PepIQ was very effective in inhibiting cancer metastasis with xenograft model of SW620 cells, indicating a potential application for metastasis intervention using the peptide or its derivatives. Thus, the effects of the peptide on metastasis in another cancer model was tested. Mouse breast cancer 4T1 cells were implanted into mammary gland of Balb/c mouse. Four days post-tumor implantation, the mice were treated by the PepIQ, the control peptide (PepScram), and buffer by 2 mg/kg daily dose for 14 days via i.p. injection. The mice were sacrificed at 26 days after tumor implantation. The primary tumors and major metastasis organs, lungs and liver, were collected and examined. […] The numbers of visible metastatic nodules in lung in the PepIQ treated group were much less and the nodules were much smaller than those in the PepScram and buffer treated groups (FIGS. 5B-5D). […] To test whether the PepIQ also affected the cell migration of 4T1 cells, cell migration assays were conducted.

[6] = molecular target: T1, IQGAP1-CaM interaction (Homo sapiens, UniProt P0DP23); test: IQGAP1-CaM co-immunoprecipitation in SW480 cell extracts; assay type: cell-based; details: SW480 cells with/without multiple scratch-wound
T1 construct: endogenous in cells; host or cells: SW480
Description: (§3) To test whether the PepIQ peptide disrupted the interaction of IQGAP1 or Myosin-II with CaM, cell extracts of SW480 cells that were treated by the PepIQ with/without multiple scratch-wound were co-immunoprecipitated using the antibody against CaM. […] The results also excluded a possibility that the PepIQ sequestered all CaM in the cells therefore inhibited cell migration. Thus, these experiments supported the notion that cell migration strengthened the p68-CaM interaction, and the IQ peptide disrupted the p68-CaM interaction induced by migration, thereby inhibiting cell migration.

[7] = molecular target: T2, p68 and CaM interaction (Homo sapiens, UniProt P0DP23); test: CaM beads pull-down of p68; assay type: binding; details: no migration stimuli
T2 construct: purchased Abcam; host or cells: p68 comes from SW480 whole cell lysate (endogenous)
Description: CaM beads pull-down assay was used to determine whether the PepIQ peptide affected the p68 and CaM interaction. […] Thus, the p68-CaM interaction was examined under migration stimuli by co-immunoprecipitation with extracts of SW480 cells using an antibody against CaM. […] Similarly, there was a strong increase in the p68 and CaM co-precipitation upon the EGF treatment. Calmodulin beads pull-down: Whole cell lysate from SW480 cells was prepared as previously described (Yang L, et al. Cell 127:139-155 (2006); Yang L, et al. Mol Cancer Res 3:355-363 (2005)). The agarose beads conjugated with recombinant calmodulin (Abcam) were pre-washed with Ca2+ containing buffer (2 mM CaCl2, 50 mM NaCl in 50 mM Tris-HCl pH 7.5) or EGTA containing buffer (5 mM EGTA, 50 NaCl in 50 mM Tris-HCl pH 7.5). After washing, the beads were incubated with the whole cell lysates in the Ca^2+ containing or EGTA containing buffer. The beads were extensively washed after incubation. Finally, 2× SDS-loading buffer were added to the beads and the beads were heated to 85° C. for 10 minutes. The proteins that were pulled down by the CaM beads were analyzed by 10% SDS PAGE and subsequent immunoblot.

[8] = molecular target: T3, Myosin-II-CaM interaction (Homo sapiens, UniProt P0DP23); test: Myosin-CaM co-immunoprecipitation in SW480 cell extracts; assay type: cell-based; details: SW480 cells with/without multiple scratch-wound
T3 construct: endogenous in cells; host or cells: SW480
Description: as §3

[9] = molecular target: T4, p68-CaM interaction (Homo sapiens, UniProt P0DP23); test: p68-CaM co-immunoprecipitation in scratch-wound treated SW480 cells; assay type: cell-based; details: co-immunoprecipitation with antibody against CaM
T4 construct: co-immunoprecipitation with extracts of SW480 cells using an antibody against CaM; endogenous in cells; host or cells: SW480
Description: Scratch-wound treatments: A scratch or multiple scratches using pipette tips were introduced into a 6 well cell culture plate. The cells were further cultured under serum starvation for 30 minutes, and were subsequently cultured for an additional indicated time. The scratch-treated cells were either directly visualized by microscopes or the cells were fixed and subsequently examined by immunostaining. Alternatively, the cells were collected and lysized. The prepared cellular extracts were then used for other analyses.
CaM beads pull-down assay was used to determine whether the PepIQ peptide affected the p68 and CaM interaction. […] Thus, the p68-CaM interaction was examined under migration stimuli by co-immunoprecipitation with extracts of SW480 cells using an antibody against CaM. […] Similarly, there was a strong increase in the p68 and CaM co-precipitation upon the EGF treatment.
To test whether the PepIQ abolished the enhancement of the p68-CaM interaction induced by cell migration, the p68-CaM interaction was probed in cell lysate of SW480 cells that were treated by the peptide.

[10] = system: SW620 xenograft; test: Metastasis inhibition of SW620 xenograft (human CK-18 RT-PCR of spleen extracts); assay type: in vivo, nude mice
[11] = system: Rhodamine labeled microtubules; test: Microtubule gliding assay; assay type: biochemical; parameters: % of gliding microtubules (n = 50): dose or concentration left out as unconfirmed; details: for % of gliding microtubules (n = 50): only MTs with gliding speed >0.025 μm/min counted; for Mean gliding speed: only MTs with motility >0.05 μM/min
Description: The slide was blocked with the blocking buffer. For the slide loaded with HA-p68, 10 μl of calmodulin with 0.5 mM of Ca^2+ was added to the slide and was incubated for 10 minutes. After loading the slide was washed with the Ca^2+ containing wash buffer to remove the unbound proteins. The prepared Rodamine labeled microtubules were then loaded onto the slide. The same Ca^2+ containing wash buffer was used to remove unbound microtubules. The movement of microtubules was then recorded by the confocal microscope.
HA-p68 was purified from SW480 cells with/without scratch-wound treatment and attached to a glass slide. Rhodamine-labeled microtubule was then added to the glass slide. Migration of the microtubule in the presence and absence of ATP was then recorded.

[12] = Table 1, TAT-fused peptides 2 mg/kg i.p. daily for two weeks, mice with metastasis/mice in group
[13] = vs PepScram and buffer treated groups

PepIQ (FASGQINTFVSRGTPGYATGMHNGMNQQAPYAYPATAAAPFVSAGIQTSFRTGNPTGAYG)
Cell migration ([1]; SW480 cells treated with peptide): almost completely inhibited
Cell migration of 4T1 cells [2]: dramatically reduced
Levels of E-cadherin and vimentin [3]: not significantly affected
Metastasis rate [4, 12]: 1/5
Metastasis rate ([4]; Table 2, additional treatment, PepIQ vs scrambled control peptide): 2/5
Effect on SW620 metastasis [4]: largely diminished; also recorded: inhibited the metastasis
Cancer metastasis in the lung (mice affected) ([5]; 2 mg/kg daily for 14 days i.p.): 3 out of 4
Mice with no micrometastasis lesion in liver tissue sections ([5]; 2 mg/kg daily for 14 days i.p.): two out of four
Average numbers of micrometastasis lesions in liver ([5]; 4 fields from three tissue sections per liver, vs buffer and PepScram groups): substantially less
Numbers of visible metastatic nodules in lung [5, 13]: much less
Size of metastatic nodules in lung [5, 13]: much smaller
Size of micrometastasis lesions in liver ([5]; vs control groups): substantially smaller
IQGAP1-CaM interaction [6]: not affected
Change in p68-CaM interaction [7]: did not lead to dramatic changes
Myosin-CaM interaction [8]: not affected

PepPhoY593: p68 aa 584-602 peptide with Y593 phosphorylation, MHNGMNQQA[p]YAYPATAAAP (SEQ ID NO:3), TAT-fused at N-terminus
Levels of E-cadherin and vimentin [3]: decrease in vimentin and an increase in Ecadherin
Metastasis rate [4, 12]: 3/5
Effect on SW620 metastasis [4]: almost no effects; also recorded: no effects on cancer metastasis

PepY593: p68 aa 584-602 peptide MHNGMNQQAYAYPATAAAP (SEQ ID NO:2), without Y593 phosphorylation, TAT-fused at N-terminus; control peptide ({TAT}-MHNGMNQQAYAYPATAAAP)
Levels of E-cadherin and vimentin [3]: not significantly affected
Metastasis rate [4, 12]: 5/5

eGFP-IQ: fusion protein containing amino acids 549-568 of p68 fused to the C-terminus of eGFP, expressed in SW620/SW480 cells (FVSAGIQTSFRTGNPTGTYQ; also: fused to C-terminus of eGFP)
Cell migration ([1]; stable expression in SW480 cells): dramatically inhibited
Increase in the p68-CaM interaction upon multiple scratch wound [9]: not dramatically strengthened
Metastasis rate ([10]; Table 3, xenograft of SW620 cells expressing the protein): 2/6
Effect on cancer metastasis of the SW620 xenograft ([10]; protein expressed in SW620 cells): greatly reduced

p68/Ca^2+-CaM: HA-p68 immunopurified from scratch-wound treated SW480 cells, in the presence of CaM and Ca2+
Maximum gliding speed ([11]; ATP): 0.52 ± 0.14 μm/min
% of gliding microtubules (n = 50) ([11]; ATP): 74.15 ± 1.20%
Mean gliding speed ([11]; ATP): 0.16 ± 0.12 μm/min
Maximum gliding speed ([11]; no ATP): 0.01 ± 0.00 μm/min
% of gliding microtubules (n = 50) ([11]; no ATP): 5.79 ± 3.13%
Mean gliding speed ([11]; no ATP): 0.00 ± 0.00 μm/min
